Data as given in patent US20240150293A1, “SPIROCYCLOHEXANE DERIVATIVES, PHARMACEUTICAL COMPOSITIONS CONTAINING THEM AND THEIR USES AS ANTI-APOPTOTIC INHIBITORS” (LES LABORATOIRES SERVIER, priority 2021, published 2024).
Like-named read-outs stand apart in the source and are kept apart here.

Key:
[1] = target: Cy5-labelled Mcl1 (amino acids 171-321) C286S protein (UniProtKB Q07820) (Homo sapiens (Human), UniProt Q07820, C286S); assay: Inhibition of Mcl-1 by the fluorescence quenching assay (Example A, Method B); assay type: binding
Chain of Cy5-labelled Mcl1 (amino acids 171-321) C286S protein (Q07820 171-321 C286S): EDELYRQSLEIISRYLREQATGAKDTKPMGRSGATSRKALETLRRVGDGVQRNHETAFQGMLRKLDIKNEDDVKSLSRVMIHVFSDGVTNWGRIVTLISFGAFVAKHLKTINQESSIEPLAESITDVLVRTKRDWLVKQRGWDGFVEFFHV
In short: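 Eleven-point compound series incubated 2 h at room temperature with 1 nM Cy5-tagged protein and quencher-labelled PUMA peptide at 10, 20 or 400 nM in HEPES/NaCl/Tween 20, pH 7.4, 5% DMSO. IC50 for 50% fluorescence increase by 4-parameter fit, then Ki derived (complete cKi or estimated eKi).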

[2] = system: H929 multiple myeloma tumor line; assay: In vitro cytotoxicity, MTT assay (Example B, Method A); assay type: cell-based; conditions: H929 cells, 48 hours exposure, read-out: C50
Protocol: The cytotoxicity studies were carried out on the H929 multiple myeloma tumor line.
The cells are distributed onto microplates and exposed to the test compounds for 48 hours. The cell viability is then quantified by a colorimetric assay, the Microculture Tetrazolium Assay (Carmichael et al, Cancer Res. 1987, 47, 939-942).
The results are expressed in C50 which means concentration corresponding to […] of effect/inhibition.

Compound | Ki [1] | IC50 ([2]; Homo sapiens, NCI-H929, 48 h) | IC50 [2]
C[C@@H](COc1ccnc2c(Cl)cn(C)c12)C[C@H]1Cc2ccccc2[C@]12CC[C@@](Nc1cccc(Cl)c1)(C(=O)O)CC2 [Example 631, (1r,2′S,4S)-4-(3-chloroanilino)-2′-{(2R)-3-[(3-chloro-1-methyl-1H-pyrrolo[3,2-b]pyridin-7-yl)oxy]-2-methylpropyl}-2′,3′-dihydrospiro[cyclohexane-1,1′-indene]-4-carboxylic acid] | 12.6 nM | 3170 nM | –
C[C@@H](COc1ccnc2ccsc12)C[C@@H]1Cc2ccc(F)cc2[C@]12CC[C@@](Nc1cccc(Cl)c1)(C(=O)O)CC2 [Example 736, (1r,2′R,4R)-4-(3-chloroanilino)-6′-fluoro-2′-{(2R)-2-methyl-3-[(thieno[3,2-b]pyridin-7-yl)oxy]propyl}-2′,3′-dihydrospiro[cyclohexane-1,1′-indene]-4-carboxylic acid] | 5.19 nM | 1220 nM | –
C[C@@H]1CCCc2nccc(OCC(CF)CC3=Cc4ccccc4[C@]34CC[C@@](Nc3cccc(Cl)c3)(C(=O)O)CC4)c21 (single isomer, unassigned) [Example 515] | 26.4 nM | – | 2390 nM
C[C@@H](COc1ccnc2c1[C@@H](C)CC[C@H]2C)C[C@H]1Cc2ccccc2[C@]12CC[C@@](Nc1cccc(Cl)c1)(C(=O)O)CC2 (single isomer, unassigned) [Example 658, (1r,2′S,4S)-4-(3-chloroanilino)-2′-[(2R)-3-{[(5R*,8S*)-5,8-dimethyl-5,6,7,8-tetrahydroquinolin-4-yl]oxy}-2-methylpropyl]-2′,3′-dihydrospiro[cyclohexane-1,1′-indene]-4-carboxylic acid] | 34.2 nM | 879 nM | –
C[C@@H](COc1ccnc2c1C(F)(F)CCC2)C[C@H]1Cc2ccccc2[C@]12CC[C@@](Nc1cccc(Cl)c1)(C(=O)O)CC2 [Example 693, (1r,2′S,4S)-4-(3-chloroanilino)-2′-{(2R)-3-[(5,5-difluoro-5,6,7,8-tetrahydroquinolin-4-yl)oxy]-2-methylpropyl}-2′,3′-dihydrospiro[cyclohexane-1,1′-indene]-4-carboxylic acid] | 3.7 nM | 527 nM | –
C[C@@H](COc1ccnc2ccn(C)c12)C[C@H]1Cc2ccccc2[C@]12CC[C@@](Nc1cccc(Cl)c1)(C(=O)O)CC2 [Example 619, (1r,2′S,4S)-4-(3-chloroanilino)-2′-{(2R)-2-methyl-3-[(1-methyl-1H-pyrrolo[3,2-b]pyridin-7-yl)oxy]propyl}-2′,3′-dihydrospiro[cyclohexane-1,1′-indene]-4-carboxylic acid] | 9.28 nM | 1360 nM | –
C[C@@H](COc1ccnc2c1C(F)CCC2)C[C@H]1Cc2ccccc2[C@]12CC[C@@](Nc1cccc(Cl)c1)(C(=O)O)CC2 (single isomer, unassigned) [Example 685] | 5.8 nM | – | 1460 nM
CO[C@H]1CCCc2nccc(OC[C@H](C)C[C@H]3Cc4ccccc4[C@]34CC[C@@](Nc3cccc(Cl)c3)(C(=O)O)CC4)c21 [Example 671, (1r,2′S,4S)-4-(3-chloroanilino)-2′-[(2R)-3-{[(5S)-5-methoxy-5,6,7,8-tetrahydroquinolin-4-yl]oxy}-2-methylpropyl]-2′,3′-dihydrospiro[cyclohexane-1,1′-indene]-4-carboxylic acid] | 39.3 nM | 2560 nM | –
O=C(O)[C@]1(Nc2cccc(Cl)c2)CC[C@]2(CC1)C(CC(COc1ccnc3ccsc13)Cc1ccccc1)=Cc1ccccc12 (single isomer, unassigned) [Example 559, (1r,4r)-2′-{2-benzyl-3-[(thieno[3,2-b]pyridin-7-yl)oxy]propyl}-4-(3-chloroanilino)spiro[cyclohexane-1,1′-indene]-4-carboxylic acid] | 73 nM | 30000 nM | –
C[C@@H](COc1ccnc2c1[C@H](C)CC[C@H]2F)CC1=Cc2cc(F)ccc2[C@]12CC[C@@](Nc1cccc(Cl)c1)(C(=O)O)CC2 [Example 772, (1r,4R)-4-(3-chloroanilino)-5′-fluoro-2′-[(2R)-3-{[(5R,8R)-8-fluoro-5-methyl-5,6,7,8-tetrahydroquinolin-4-yl]oxy}-2-methylpropyl]spiro[cyclohexane-1,1′-indene]-4-carboxylic acid] | 3.63 nM | 126 nM | –
CC(O)c1ccc2c(c1)[C@]1(CC[C@@](Nc3cccc(Cl)c3)(C(=O)O)CC1)[C@@H](C[C@@H](C)COc1ccnc3c1[C@H](C)CC[C@H]3C)C2 (stereo partly drawn) [Example 865, (1r,2′S,4S)-4-(3-chloroanilino)-2′-[(2R)-3-{[(5R,8R)-5,8-dimethyl-5,6,7,8-tetrahydroquinolin-4-yl]oxy}-2-methylpropyl]-6′-(1-hydroxyethyl)-2′,3′-dihydrospiro[cyclohexane-1,1′-indene]-4-carboxylic acid] | 0.204 nM | 45.9 nM | –
CO[C@@H]1CCCc2nccc(OC[C@H](C)C[C@H]3Cc4ccccc4[C@]34CC[C@@](Nc3cccc(Cl)c3)(C(=O)O)CC4)c21 [Example 672, (1r,2′S,4S)-4-(3-chloroanilino)-2′-[(2R)-3-{[(5R)-5-methoxy-5,6,7,8-tetrahydroquinolin-4-yl]oxy}-2-methylpropyl]-2′,3′-dihydrospiro[cyclohexane-1,1′-indene]-4-carboxylic acid] | 2.44 nM | 391 nM | –
C[C@@H](COc1ccnc2c1[C@H](C)CCC2)CC1Cc2c(Cl)cccc2[C@]12CC[C@@](Nc1cccc(Cl)c1)(C(=O)O)CC2 (single isomer, unassigned) [Example 740] | 0.827 nM | – | 45.9 nM
C[C@@H](COc1ccnc2c1CCC2O)C[C@H]1Cc2ccccc2[C@]12CC[C@@](Nc1cccc(Cl)c1)(C(=O)O)CC2 (single isomer, unassigned) [Example 608] | 1.62 nM | 792 nM | –
Cc1cc(OC[C@H](C)C[C@H]2Cc3ccccc3[C@]23CC[C@@](Nc2cccc(Cl)c2)(C(=O)O)CC3)c2c(n1)CCCC2C (single isomer, unassigned) [Example 662] | 68.7 nM | – | 9060 nM
Cc1cc(C(C)O)cc2c1C=C(C[C@@H](C)COc1ccnc3c1[C@H](C)CCC3)[C@]21CC[C@](Nc2cccc(Cl)c2)(C(=O)O)CC1 (single isomer, unassigned) [Example 760] | 0.198 nM | – | 81.7 nM
CC1CCc2nccc(OC[C@H](C)CC3=Cc4ccccc4[C@]34CC[C@@](Nc3cccc(Cl)c3)(C(=O)O)CC4)c21 (single isomer, unassigned) [Example 629] | 9.55 nM | – | 880 nM
C[C@@H](COc1ccnc2c1C1CCC2CC1)C[C@H]1Cc2ccccc2[C@]12CC[C@@](Nc1cccc(Cl)c1)(C(=O)O)CC2 [Example 648, (1r,2′S,4S)-4-(3-chloroanilino)-2′-{(2R)-2-methyl-3-[(5,6,7,8-tetrahydro-5,8-ethanoquinolin-4-yl)oxy]propyl}-2′,3′-dihydrospiro[cyclohexane-1,1′-indene]-4-carboxylic acid] | 18 nM | 790 nM | –
CC[C@@H]1CC[C@@H](O)c2nccc(OC[C@H](C)C[C@H]3Cc4ccccc4[C@]34CC[C@@](Nc3cccc(Cl)c3)(C(=O)O)CC4)c21 [Example 679, (1r,2′S,4S)-4-(3-chloroanilino)-2′-[(2R)-3-{[(5R,8R)-5-ethyl-8-hydroxy-5,6,7,8-tetrahydroquinolin-4-yl]oxy}-2-methylpropyl]-2′,3′-dihydrospiro[cyclohexane-1,1′-indene]-4-carboxylic acid] | 2.32 nM | 199 nM | –
O=C(O)[C@]1(Nc2cccc(Cl)c2)CC[C@@]2(CC1)c1ccccc1CC2CC(COc1ccnc2ccsc12)C(F)F (stereo partly drawn) [Example 511, (1r,4r)-4-(3-chloroanilino)-2′-(3,3-difluoro-2-{[(thieno[3,2-b]pyridin-7-yl)oxy]methyl}propyl)-2′,3′-dihydrospiro[cyclohexane-1,1′-indene]-4-carboxylic acid] | 19.9 nM | 2720 nM | –
CC[C@H]1CCc2nccc(OC[C@H](C)C[C@H]3Cc4ccccc4[C@]34CC[C@@](Nc3cccc(Cl)c3)(C(=O)O)CC4)c21 [Example 613, (1r,2′S,4S)-4-(3-chloroanilino)-2′-[(2R)-3-{[(5S)-5-ethyl-6,7-dihydro-5H-cyclopenta[b]pyridin-4-yl]oxy}-2-methylpropyl]-2′,3′-dihydrospiro[cyclohexane-1,1′-indene]-4-carboxylic acid] | 18.9 nM | 2360 nM | –
C[C@@H](COc1ccnc2c1[C@H](C)CCC2)C[C@@H]1Cc2ccc(CO)cc2[C@]12CC[C@@](Nc1cccc(Cl)c1)(C(=O)O)CC2 [Example 869, (1r,2′R,4R)-4-(3-chloroanilino)-6′-(hydroxymethyl)-2′-[(2R)-2-methyl-3-{[(5R)-5-methyl-5,6,7,8-tetrahydroquinolin-4-yl]oxy}propyl]-2′,3′-dihydrospiro[cyclohexane-1,1′-indene]-4-carboxylic acid] | 0.384 nM | 193 nM | –
C[C@@H](COc1ccnc2c1[C@H](C)CCC2)C[C@@H]1Cc2ccc(COC3CCCO3)cc2[C@]12CC[C@@](Nc1cccc(Cl)c1)(C(=O)O)CC2 (stereo partly drawn) [Example 871, (1r,2′R,4R)-4-(3-chloroanilino)-2′-[(2R)-2-methyl-3-{[(5R)-5-methyl-5,6,7,8-tetrahydroquinolin-4-yl]oxy}propyl]-6′-{[(oxolan-2-yl)oxy]methyl}-2′,3′-dihydrospiro[cyclohexane-1,1′-indene]-4-carboxylic acid] | 0.737 nM | 114 nM | –
C[C@@H]1CCCc2nccc(OCC(CC3=Cc4ccccc4[C@]34CC[C@@](Nc3cccc(Cl)c3)(C(=O)O)CC4)C(F)F)c21 (single isomer, unassigned) [Example 516] | 28 nM | – | 3860 nM
